These results are taken from patent US4616015A, “Triazine derivatives, and pharmaceutical compositions comprising the same” (Fujisawa Pharmaceutical Co., Ltd., priority 1983, dated 1986).

pIC50: −log10 of the molar value. Where a name gives a salt, the structure may show the parent alone.

Experiment [1] deals with blood pressure. As to the kind of experiment: Antihypertensive activity (test A): maximum decrease of blood pressure in uninephrectomized DOCA/saline hypertensive rats, oral. The class given is in vivo, male Wister rats. As to the method: Five-week old male Wister rats were uninephrectomized under anesthesia. Deoxycorticosterone acetate (DOCA) (30 mg/kg), suspended in peanut oil, was injected subcutaneously twice a week and 1% saline was substituted for the drinking water. Animals with mean blood pressure 150-200 mmHg were used for experiment between 5 and 7 weeks after surgery.
The test compounds were administered orally. Blood pressure was measured at the femoral artery by means of a pressure transducer and recorded as electrically integrated values of mean arterial pressure.

The test system of experiment [2] is platelet aggregation. Description: Inhibition of platelet aggregation induced by ADP, platelet rich plasma (test B). It is filed as cell-based. Particulars: Oryctolagus cuniculus, inducer ADP (2.5 μM), rabbit PRP, 37° C., read-out: ID50, platelet aggregation, ADP. As to the method: (§1) Platelet rich plasma (PRP) which contains 6.5-7.5×10^8 platelet/ml was prepared from rabbit blood. To the 200 μl of PRP, 5 μl of calcium chloride (1 mM) and 50 μl of pH 7.4 Tris-acetate solution (5 mM) containing 120 mM NaCl and test compound were added successively, and then stirred for 2 min. at 37° C. To the solution, 5 μl of adenosine diphosphate (ADP) (2.5 μM) or collagen (2.5 μg/ml) was added as an aggregation inducer. Aggregation was measured by using an aggregometer (NKK HEMA TRACER 1).

The test system of experiment [3] is platelet aggregation. As to the kind of experiment: Inhibition of platelet aggregation induced by collagen, platelet rich plasma (test B). It is filed as cell-based. The conditions noted are these: Oryctolagus cuniculus, inducer collagen (2.5 μg/ml), rabbit PRP, 37° C., read-out: ID50, platelet aggregation, collagen. As to the method:
as §1

Experiment [4] has as its system ethanol ulcer. Description: Ethanol ulcer, area of ulcers (test C). It is filed as in vivo, male Sprague-Dowley rats. Particulars: dose c: 32 mg/kg, oral, 30 minutes before ethanol. As to the method:
Five male Sprague-Dowley rats, aged 7 weeks and weighing about 200 g, were used per group for the study on ethanol ulcer after the fast for 24 hours.
Test compound was suspended in 0.1% methylcellulose aqueous solution, and the suspension (5 ml/kg) was orally given to each rat.
The control group was given a vehicle, i.e. 0.1% methylcellulose aqueous solution (5 ml/kg), alone in the same way.
Absolute ethanol (5 ml/kg) was orally administered 30 minutes after dosing with test compound, and one hour later, the rats were sacrificed and their stomachs were removed. The area of ulcers of each rat was measured. The mean area (mm^2) in the medicated group was compared with that in the control group.

Regarding `CC1NC(=O)NN=C1c1ccc(NC(=O)[C@@H](C)O)cc1` (stereo partly drawn) [13-(3), 6-(4-D-Lactoylaminophenyl)-5-methyl-4,5-dihydro-1,2,4-triazin-3(2H)-one], the “Effect Max (mean ratio of maximum decrease of blood pressure)” value is 22% in experiment [1] (dose a: 0.1 mg/kg) and 50% in experiment [1] (dose b: 1 mg/kg). In addition, the pIC50 was 6.49 in experiment [2] and 6.82 in experiment [3].
As for `CC(=O)C(=O)Nc1ccc(C2=NNC(=O)NC2C)cc1` (stereo not drawn) [5-(19), 6-(4-Pyruvoylaminophenyl)-5-methyl-4,5-dihydro-1,2,4-triazin-3(2H)-one], the pIC50 in experiment [2] was 6.96; in experiment [3], 8.28.
In the case of `CC1NC(=O)NN=C1c1ccc(NCCCN)cc1` (stereo not drawn) [21-(1), 6-[4-(3-aminopropylamino)phenyl]-5-methyl-4,5-dihyro-1,2,4-triazin-3(2H)-one], the results for the pIC50 in experiment [2] and in experiment [3] were 6.72 and 7.33, respectively.
On the same counts, the results for `C=CC(=O)Nc1ccc(C2=NNC(=O)NC2C)cc1` (stereo not drawn) [22-(1), 6-(4-Acryloylaminophenyl)-5-methyl-4,5-dihydro-1,2,4-triazin-3(2H)-one] are 7.17 and 7.80.
For `CC1NC(=O)NN=C1c1ccc(NC(=O)CN)cc1` (stereo not drawn) [Example 29, 6-(4-glycyclaminophenyl)-5-methyl-4,5-dihydro-1,2,4-triazin-3(2H)-one hydrochloride], the “Effect Max (mean ratio of maximum decrease of blood pressure)” value in experiment [1] (dose a: 0.1 mg/kg) was 11.1%; in experiment [1] (dose b: 1 mg/kg) it was 47.5%.
Regarding `CC(Cl)C(=O)Nc1ccc(C2=NNC(=O)NC2C)cc1` (stereo not drawn) [5-(7), 6-[4-(2-Chloropropionylamino)phenyl]-5-methyl-4,5-dihydro-1,2,4-triazin-3(2H)-one], the “Effect Max (mean ratio of maximum decrease of blood pressure)” value in experiment [1] (dose a: 0.1 mg/kg) came to 18.7%; in experiment [1] (dose b: 1 mg/kg) it was 51.8%.
`CC1NC(=O)NN=C1c1ccc(NC(=O)CCC(=O)O)cc1` (stereo not drawn) [13-(4), Sodium 3-[4-(3-methyl-4,5-dihydro-3(2H)-oxo-1,2,4-triazin-6-yl)phenylcarbamoyl]propionate]: in experiment [4], the “Effect Max (ulcer area vs control)” value amounted to 67.0%.
